The text below walks through data of patent US10349662B2, “Insecticidal compositions and methods of using the same” (priority 2011, dated 2019).

For data set [1] the following is noted: cited from earlier work.
The next data set has as its system Aedes aegypti mosquitoes. Nature of the data set: Topical bioassay on adult female Aedes aegypti mosquitoes (knockdown 1 h, mortality 24 h; Colby calculation for combinations). The format is in vivo. The text has this: Components of a composition can have a synergistic or additive effect on insecticidal activity. Components have an additive effect when the effect of the combination is equal to the sum of the effects of each individual component. In contrast, components have a synergistic effect when the effect of the combination exceeds the sum of the effects of the components when applied individually. The effect (E) of a combination of two compounds may be calculated using the Colby formula (1) (S. R. Colby, “Calculating Synergistic and Antagonistic Responses of Herbicide Combinations”, Weeds 1967, 15, 20-22):
If the actual insecticidal kill rate is the calculated value (E), then the action of the combination is additive. If the actual insecticidal kill rate exceeds the calculated value (E), then the action of the combination is super-additive, that is, a synergistic effect is present. If the insecticidal kill rate is lower than the calculated value (E), then the action of the combination is considered antagonistic.
Adult female Aedes aegypti mosquitoes were segregated in 18″×18″ screen cages based on date of eclosion, therefore the exact age of the mosquitoes were known for bioassays.
Ten female mosquitoes, aged four to six days after eclosion, were aspirated out of their respective cage and into a small glass jar. The mosquitoes were then anesthetized with CO2 gas for 30 seconds. After the adults were anesthetized, they were quickly placed on a plastic platform for treatment application. Treatments were serially diluted (using a BrandTech Scientific Transferpette S pipette (100-1000 μL), labeled centrifuge tubes, and a vortex mixer) from stocks of insecticides using reagent grade acetone as the diluent to concentrations as indicated for each treatment solution. A treatment solution may contain additional ingredients as indicated for each study.
Using a Hamilton PB00-1 Repeating Dispenser with a Hamilton 25 Microliter Syringe, 0.5 μL of each treatment solution was applied to the thorax of each mosquito. Immediately following the application of the treatment, the mosquitoes were gently transferred into a clean paper cup and covered with screen. The mesh screen prevented the mosquitoes from escaping and allowed the specimens to be viewed for ratings. A cotton ball soaked with 10% sucrose solution was inserted into a side hole of each cup for hydration and nourishment. Each treatment variable in the study was replicated three times using separate cups for each replication.
The untreated controls treatments were anesthetized for 30 seconds and gently transferred to the paper cups. The acetone treated control was treated exactly as described above except that the solution applied to each mosquito was undiluted acetone.
The condition of the mosquitoes in each cup was recorded at one hour and 24 hours after initial treatment. The condition classifications used were (1) alive and flying, (2) alive and unable to fly, or (3) dead. The percent mortality for each treatment was calculated by summing the mortalities of each replicate then calculating the percent dead from the total number of mosquitoes.
Where indicated, the mortality data were subjected to probit analysis using the Statistical Analysis System Version 9.1 program PROC PROBIT (SAS Institute (2003) PROC user's manual, version 9.1. SAS Institute, Cary, N.C.).

The test system of data set [2] is Culex quinquefasciatus mosquitoes. Nature of the data set: Topical bioassay on adult female Culex quinquefasciatus mosquitoes (knockdown 1 h, mortality 24 h; Colby calculation for combinations). The format is in vivo.
The next data set deals with Cytochrome P450 enzyme. The data set can be described thus: P450 activity assay (7-ethoxycoumarin, fluorescence). The format is biochemical, A. aegypti. The settings on record: FIG. 2; for inhibition of P450 activity: added to the assay. On the procedure:
Cytochrome P450 enzyme solution was prepared by homogenizing 15, 3 to 5 day old, A. aegypti females and centrifuging the mixture at 10,000 g for 1 minute. The pellet was discarded, and the supernatant was used as the P450 enzyme stock solution. 10 μL of this P450 enzyme stock and 90 μL of 7-ethoxycoumarin solution (0.526 mM of 7-ethoxycoumarin, 1.11 mM NADPH, 0.05 mM phosphate buffer) was added to each well of the micropipette plate to begin the reaction. During the reaction, the micropipette plate was covered with aluminum foil to prevent photo-bleaching. The reaction was incubated at 30° C. for 4 hours. The reaction was stopped by adding 30 μL of stop solution (0.1 mM glycine, pH 10.4, 50% ethanol). The micropipette plate was then analyzed by measuring the fluorescence (Emission=460 nm, Excitation=360 nm) of each well. High fluorescence was directly related to product, and thus indicated a high level of P450 activity.

SMILES strings stand for the structures. ≈ marks a conversion by molar mass, not a printed value. Where “and” joins values, the source holds several entries; their conditions need not be identical. Equal entries are not always repeated. Where two headings read alike, the source gives them in different places.

`C=C(C)C1CC=C(CO)CC1` (racemic) [Pennyl Alcohol (racemic)]: in data set [1], the “Vapor Pressure (@ 25° C.)” value was 0.00478 mmHg and the “Solubility (in water @ 25° C.)” value is 471 µg/mL (≈ 3090 µM).
Regarding `CC(C)=CCC[C@]1(C)[C@H]2CC=C(C)[C@@H]1C2` (relative stereo) [Bergamotene Trans Alpha], in data set [1], the “Vapor Pressure (@ 25° C.)” value is recorded as 0.028 mmHg and the “Solubility (in water @ 25° C.)” value is 0.030 µg/mL (≈ 0.147 µM).
In the case of `C=C1CC[C@H]2O[C@]2(C)CC[C@@H]2[C@@H]1CC2(C)C` [Caryophyllene Oxide-Beta], in data set [1], the “Vapor Pressure (@ 25° C.)” value is on record as 0.01 mmHg and the “Solubility (in water @ 25° C.)” value was 2.21 µg/mL (≈ 10 µM).
For `C=C(C)[C@H]1CC=C(C)CC1` [D-limonene], the “Vapor Pressure (@ 25° C.)” value in data set [1] is on record as 1.541 mmHg.
With `CN/C(=N/CC1CCOC1)N[N+](=O)[O-]` (stereo not shown) [Dinotefuran, dinotefuran, reference compound], the 1 hour knockdown in the data set with Aedes aegypti mosquitoes (0.004 μg/mosquito) is 0%; with Aedes aegypti mosquitoes (0.006 μg/mosquito) it was 0% and 3%; in data set [2] (0.008 μg/mosquito), 10%. Besides, the “% MORTALITY AFTER 24 HRS” value in the data set with Aedes aegypti mosquitoes (0.004 μg/mosquito) is 0%; in data set [2] (0.008 μg/mosquito) it was 77% and 73%. In addition, the mortality at 0.004 µg/mosquito with Aedes aegypti mosquitoes (Aedes aegypti, topical, 24 h, read-out: % MORTALITY AFTER 24 HRS, 0.004 μg/mosquito) is 0%. For the same compound, the LD50 in the data set with Aedes aegypti mosquitoes (topical application, adult Aedes aegypti) is given as 0.06 μg/mosquito.
For the compound `C=C/C(C)=C/C/C=C(\C)CCC=C(C)C` [Farnesene Alpha], in data set [1], the “Vapor Pressure (@ 25° C.)” value was 0.025 mmHg and the “Solubility (in water @ 25° C.)” value is 0.011 µg/mL (≈ 0.0538 µM).
Consider `C=C1/C=C/[C@H](C(C)C)CC/C(C)=C/CC1` [Germacrene D], for which, in data set [1], the “Vapor Pressure (@ 25° C.)” value is reported as 0.023 mmHg and the “Solubility (in water @ 25° C.)” value is 0.013 µg/mL (≈ 0.0636 µM).
Turning to `C=CC(C)(O)CCC=C(C)C` (stereo not shown) [Linalool], in data set [1], the “Vapor Pressure (@ 25° C.)” value is listed as 0.16 mmHg and the “Viscosity (@ 25° C.)” value is on record as 4.4 mPa.
For the compound `CCCCOCCOCCOCc1cc2c(cc1CCC)OCO2` [PBO, piperonyl butoxide, reference compound], in the data set on Cytochrome P450 enzyme, the “inhibition of P450 activity” value is “acted as inhibitors”.
As for `C=C(C)C1CC=C(C=O)CC1` (stereo not shown) [Perillaldehyde, perillaldehyde], the 1 hour knockdown in the data set on Aedes aegypti mosquitoes (3%) was 53%; in data set [2] (2%), 33%. Besides, the mortality at 1 % in the data set on Aedes aegypti mosquitoes (Aedes aegypti, topical, 24 h, read-out: % MORTALITY AFTER 24 HRS, 1%) is 3%; in the data set on Aedes aegypti mosquitoes (Aedes aegypti, topical, 24 h, read-out: % MORTALITY AFTER 24 HRS, single active, 1%), 0%. The mortality at 3 % in the data set on Aedes aegypti mosquitoes (Aedes aegypti, topical, 24 h, read-out: % MORTALITY AFTER 24 HRS, single active, 3%) is 73%. Besides, the “% MORTALITY AFTER 24 HRS” value in data set [2] (2%) and in data set [2] (3%) was 13% in each case. In addition, the “inhibition of P450 activity” value in the data set on Cytochrome P450 enzyme is recorded as “acted as inhibitors”. In addition, the “inhibition of P450 activity relative to PBO” value in the data set with Cytochrome P450 enzyme (perillaldehyde at 1% vs PBO at 2%) is recorded as “as potent an inhibitor of P450 as PBO at 2%”; with Cytochrome P450 enzyme (perillaldehyde at 10% vs PBO at 2%), “a more potent inhibitor of P450 than PBO at 2%”. Moreover, the “Vapor Pressure (@ 25° C.)” value in data set [1] is recorded as 0.0463 mmHg. The “Solubility (in water @ 25° C.)” value in data set [1] is 160.7 µg/mL (≈ 1070 µM).
Take `CC1=CCC2CC1C2(C)C` (stereo not drawn) [Pinene Alpha]: the “Vapor Pressure (@ 25° C.)” value in data set [1] is 4.75 mmHg.
Turning to `C=C1CCC2CC1C2(C)C` (stereo not drawn) [Pinene Beta], the “Vapor Pressure (@ 25° C.)” value in data set [1] is listed as 2.93 mmHg.
For the compound `C=C1CC[C@@H]2[C@H]([C@H]3[C@H]1CC[C@]3(C)O)C2(C)C` [Spathulenol], in data set [1], the “Vapor Pressure (@ 25° C.)” value is 1.2 × 10^−4 mmHg and the “Solubility (in water @ 25° C.)” value was 12.4 µg/mL (≈ 56.3 µM).
With `CN1COCN(Cc2cnc(Cl)s2)/C1=N\[N+](=O)[O-]` [Thiamethoxam, thiamethoxam, reference compound], the mortality at 2.5 ng in the data set on Aedes aegypti mosquitoes (Aedes aegypti, topical, 24 h, read-out: % MORTALITY AFTER 24 HRS, 0.0025 μg) is 3%. Also, in the data set on Aedes aegypti mosquitoes (Aedes aegypti, topical, 24 h, read-out: % MORTALITY AFTER 24 HRS, single active, 0.0075 μg), the mortality at 7.5 ng is 23%. For the same compound, in the data set on Aedes aegypti mosquitoes (Aedes aegypti, topical, 24 h, read-out: % MORTALITY AFTER 24 HRS, single active, 0.01 μg), the mortality at 10 ng is 7%.
As to `CC[S+]([O-])c1c(C#N)nn(-c2c(Cl)cc(C(F)(F)F)cc2Cl)c1N` (stereo not shown) [ethiprole, reference compound], the 1 hour knockdown with Aedes aegypti mosquitoes (0.0005 μg/mosquito) was 0%. In the data set with Aedes aegypti mosquitoes (Aedes aegypti, topical, 24 h, read-out: % MORTALITY AFTER 24 HRS, 0.0005 μg/mosquito), the mortality at 0.0005 µg/mosquito was 97%.
Turning to `C=C1CC/C=C(\C)CC[C@@H]2[C@@H]1CC2(C)C` [β-Caryophyllene], the 1 hour knockdown in the data set with Aedes aegypti mosquitoes (1%) is given as 0%; in the data set with Aedes aegypti mosquitoes (5%), 10%; with Aedes aegypti mosquitoes (10%) it was 57%; in the data set with Aedes aegypti mosquitoes (20%) it was 93%. For the same compound, the “% MORTALITY AFTER 24 HRS” value with Aedes aegypti mosquitoes (1%) is 0%; with Aedes aegypti mosquitoes (3%) it was 0%; in the data set with Aedes aegypti mosquitoes (3%, listed as β-CARYOPHYLLENE), 77%; in the data set on Aedes aegypti mosquitoes (5%), 17%; in the data set with Aedes aegypti mosquitoes (10%) it was 40%; in the data set on Aedes aegypti mosquitoes (20%) it was 83%. Besides, the “% MORTALITY AFTER 24 HRS” value with Aedes aegypti mosquitoes (single active, 3%) is 7% and 10%. Also, in data set [1], the “Vapor Pressure (@ 25° C.)” value is given as 0.031 mmHg. The “Solubility (in water @ 25° C.)” value in data set [1] was 0.05 µg/mL (≈ 0.245 µM).
